According to patent publication US8633206B2, “Pyrrolo[2,3-D]pyrimidine compounds” (Pfizer Inc., priority 2009, dated 2014):
pIC50: −log10 of the molar value.

What was measured:
Type in all cases: biochemical
JAK3 = JAK3 (Homo sapiens (Human), UniProt P52333); experiment: JAK enzymatic assay (peptide mobility shift), JAK3; conditions: recombinant JAK3 1 nM, JAKtide peptide, 90 minutes
JAK2 = JAK2 (Homo sapiens (Human), UniProt O60674); experiment: JAK enzymatic assay (peptide mobility shift), JAK2; conditions: recombinant JAK2 2 nM, JAKtide peptide, 150 minutes
Chain of JAK2 (O60674 808-1132): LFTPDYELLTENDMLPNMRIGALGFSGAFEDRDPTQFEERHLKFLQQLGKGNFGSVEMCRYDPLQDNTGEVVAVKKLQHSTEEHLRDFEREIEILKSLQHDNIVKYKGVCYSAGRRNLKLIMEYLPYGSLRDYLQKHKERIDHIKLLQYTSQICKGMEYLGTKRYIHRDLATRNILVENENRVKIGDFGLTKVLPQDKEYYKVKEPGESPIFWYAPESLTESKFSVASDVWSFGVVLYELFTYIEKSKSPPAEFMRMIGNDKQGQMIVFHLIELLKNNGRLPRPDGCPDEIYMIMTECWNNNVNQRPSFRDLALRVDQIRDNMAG

JAK1 = JAK1 (Homo sapiens (Human), UniProt P23458); experiment: JAK enzymatic assay (peptide mobility shift), JAK1; conditions: recombinant JAK1 20 nM, IRS-1 peptide, 240 minutes
Chain of JAK1 (P23458 whole entry): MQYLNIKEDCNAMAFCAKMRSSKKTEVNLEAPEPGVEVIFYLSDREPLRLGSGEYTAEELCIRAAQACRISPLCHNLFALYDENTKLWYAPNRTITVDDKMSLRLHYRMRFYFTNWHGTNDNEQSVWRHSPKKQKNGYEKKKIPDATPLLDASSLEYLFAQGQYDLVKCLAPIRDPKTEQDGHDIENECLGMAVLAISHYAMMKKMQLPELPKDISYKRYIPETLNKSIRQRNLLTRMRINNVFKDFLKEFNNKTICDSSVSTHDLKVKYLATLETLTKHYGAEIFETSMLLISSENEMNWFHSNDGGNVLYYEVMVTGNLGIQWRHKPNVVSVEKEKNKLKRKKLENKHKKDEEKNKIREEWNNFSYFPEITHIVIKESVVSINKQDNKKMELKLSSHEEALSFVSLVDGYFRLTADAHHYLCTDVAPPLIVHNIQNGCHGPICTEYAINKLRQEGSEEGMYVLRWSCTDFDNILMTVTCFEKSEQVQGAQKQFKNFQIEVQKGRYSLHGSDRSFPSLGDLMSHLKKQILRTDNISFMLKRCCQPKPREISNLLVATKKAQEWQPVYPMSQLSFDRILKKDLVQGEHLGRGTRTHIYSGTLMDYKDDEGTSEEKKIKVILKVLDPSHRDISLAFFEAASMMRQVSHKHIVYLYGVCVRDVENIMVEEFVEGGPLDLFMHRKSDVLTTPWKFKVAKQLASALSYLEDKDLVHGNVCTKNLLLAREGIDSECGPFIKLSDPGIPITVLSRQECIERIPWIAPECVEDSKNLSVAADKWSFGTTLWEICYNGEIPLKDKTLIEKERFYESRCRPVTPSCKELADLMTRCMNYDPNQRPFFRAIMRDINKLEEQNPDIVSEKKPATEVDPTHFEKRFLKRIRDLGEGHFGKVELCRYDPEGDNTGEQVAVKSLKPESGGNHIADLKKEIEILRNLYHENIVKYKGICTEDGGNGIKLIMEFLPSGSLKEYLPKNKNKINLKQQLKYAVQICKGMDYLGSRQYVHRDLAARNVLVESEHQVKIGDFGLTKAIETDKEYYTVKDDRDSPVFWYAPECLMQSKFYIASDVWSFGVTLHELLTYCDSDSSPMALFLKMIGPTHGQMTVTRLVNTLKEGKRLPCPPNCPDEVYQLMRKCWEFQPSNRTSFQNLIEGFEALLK

Chain of JAK3 (P52333 781-1124): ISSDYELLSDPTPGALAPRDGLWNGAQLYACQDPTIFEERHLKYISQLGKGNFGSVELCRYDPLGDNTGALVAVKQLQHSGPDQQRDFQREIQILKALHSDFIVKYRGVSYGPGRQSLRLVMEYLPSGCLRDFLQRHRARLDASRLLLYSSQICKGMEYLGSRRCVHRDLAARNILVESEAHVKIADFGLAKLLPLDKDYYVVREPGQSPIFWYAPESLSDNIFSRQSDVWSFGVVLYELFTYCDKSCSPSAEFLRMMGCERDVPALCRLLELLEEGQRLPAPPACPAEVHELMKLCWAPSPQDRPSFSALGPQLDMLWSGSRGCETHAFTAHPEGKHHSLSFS

Compound	pIC50 (JAK3)	pIC50 (JAK2)	pIC50 (JAK1)
CN(c1ncnc2[nH]ccc12)[C@H]1CC[C@H](CS(=O)(=O)N2CC[C@H](NC(=O)OC(C)(C)C)C2)CC1 [Example 26, tert-butyl {(3S)-1-[({trans-4-[methyl(7H-pyrrolo[2,3-d]pyrimidin-4-yl)amino]-cyclohexyl}methyl)sulfonyl]-pyrrolidin-3-yl}carbamate]	6.64	7.32	8.84
CN(c1ncnc2[nH]ccc12)[C@H]1CC[C@H](CS(=O)(=O)N2CCC[C@H](O)C2)CC1 [Example 14, (3S)-1-[({trans-4-[methyl-(7H-pyrrolo[2,3-d]-pyrimidin-4-yl)amino]-cyclohexyl}methyl)sulfonyl]-piperidin-3-ol]	6.77	7.79	8.27
CN(c1ncnc2[nH]ccc12)[C@H]1CC[C@H](CS(=O)(=O)N2CCCC3(CNC(=O)C3)C2)CC1 (stereo partly drawn) [Example 127, 7-[({trans-4-[methyl(7H-pyrrolo[2,3-d]pyrimidin-4-yl)amino]cyclohexyl}-methyl)sulfonyl]-2,7-diazaspiro[4.5]decan-3-one]	6.00	7.20	7.84
CN(c1ncnc2[nH]ccc12)[C@H]1CC[C@H](CS(=O)(=O)N2CCC(O)CC2)CC1 [Example 9, 1-[({trans-4-[methyl(7H-pyrrolo[2,3-d]pyrimidin-4-yl)amino]cyclohexyl}methyl)-sulfonyl]piperidin-4-ol]	6.47	7.47	8.04
CCC1(NC(=O)OCc2ccccc2)CCCN(S(=O)(=O)C[C@H]2CC[C@H](N(C)c3ncnc4[nH]ccc34)CC2)C1 (stereo partly drawn) [Example 4, benzyl {3-ethyl-1-[({trans-4-[methyl(7H-pyrrolo[2,3-d]pyrimidin-4-yl)amino]cyclohexyl}methyl)-sulfonyl]piperidin-3-yl}carbamate]	6.07	7.14	7.35
